Patent US6979447B2, “Immunomodulation and effect on cell processes relating to serotonin family receptors” (Philadelphia Health and Education Corporation, priority 2001, dated 2005)

Columns and labels:
murine lymphocytes = experiment: Murine mixed lymphocyte reaction (BALB/c vs. C57BL6); type: cell-based, mouse; conditions: BALB/c vs. C57BL6, FIG. 10
Description: MLRs were performed essentially as described in Current Protocols in Immunology (1999, Section 3.12.6-3.12.7). That is, the primary spleen cells obtained from C57/B6J mice were used as stimulators. They were purified as described in Current Protocols in Immunology (1999, Section 3.1.5), and were irradiated (35 Gy) at the Hahnemann Hospital (Philadelphia, Pa.) blood bank facility. Primary spleen cells obtained from BALB/c/BYJ were depleted from the adherent cells using a nylon wool column, and were used as responders.
The various inhibitors were pre-plated onto 96 well, U-bottom plates and all experimental conditions were assayed at least in triplicate. 100,000 C57/B6 cells in RPMI medium, supplemented with 10% FBS, were plated into each well. 200,000 of BALB/c/BYJ cells were plated over the stimulator cells, to a final volume of 200 μl/well. Background controls received either no BALB/c cells, or no C57/B6 cells. One micro Ci of tritiated thymidine was added to each well after 4 days, and the plates were harvested 12 hours later.

[1] = system: RPMI 8226 multiple myeloma cells; experiment: RPMI 8226 cell proliferation / viability (trypan blue, MTT, 3H-thymidine); type: cell-based, human; conditions: low dose-titration, FIGS. 23, 24 and 25
Description: The human plasmacytoma (multiple myeloma) cell line, RPMI 8226 (American Type Culture Collection, Manassas, Va.), was cultured in RPMI 1640 supplemented with 10 mM HEPES, 1 mM sodium pyruvate, 4.5 g/L glucose, 1.5 g/L bicarbonate and 20% FBS (non-heat inactivated).
Cell proliferation was assayed by three methods—Trypan Blue Exclusion was used to quantify the number of viable cells in culture; 3-(4,5-dimethylthiazol-2-yl)-2,5-diphenyl tetrazolium bromide (MTT) reduction was used to assay mitochondrial activity (and thus cell viability); and ^3H-Thymidine uptake was employed to assay for active DNA synthesis.
The following 5-HT receptor modulating compounds were tested for their effects on RPMI 8226 cells in vitro cultured at the described densities and across the indicated concentration ranges.

human lymphocytes [2] = experiment: Human mixed lymphocyte reaction (allogeneic stimulation); type: cell-based; conditions: allogeneic stimulation, harvested 120 hours, FIGS. 7B, 8B, 9B
Text: Blood from two healthy, non-related, donors was taken as described above. Peripheral blood mononuclear cells were isolated as described previously elsewhere. The adherent cells were separated from the suspension cells as described previously for both donors. Suspension cells from both donors (donors A and B) were used as responders. The remaining adherent cells from each of the donors were used as stimulators against a different donor (suspension A against adherent B and adherent A against suspension B). The stimulator cells were irradiated at 35 Gy. Drugs were pre-plated onto 96 well, U-bottom plates in triplicate. 200,000 “stimulator” cells in RPMI supplemented with 10% human serum were then plated in each well. 200,000 “responder” cells in the same medium were then plated over stimulators to a final volume of 200 μl/well. Background controls received either no stimulator cells, or no responder cells. The plates were incubated at 37° C. and 5% CO2. 1 μCi of tritiated thymidine was added to each well after 4.5 days, and the plates were harvested 12 hours later.

human lymphocytes [3] = experiment: Human mitogenic (ConA) stimulation, 3H-thymidine incorporation; type: cell-based; conditions: for effect on activation / proliferative response: ConA 5 μg/ml, FIGS. 7A, 8A, 9A
Description: Blood from healthy volunteers was drawn using venipuncture, using Vacutainer collection sets and heparinized collection vials. The blood was diluted 1:1 using HBSS to a total volume of 30 ml in 50 ml conical tubes (Fisher Scientific, Co., Pittsburgh, Pa.). […] Cells from the buffy coats were collected and the residual Histopaque was washed away using repeated centrifugations in HBSS. After washes, cells were resuspended at 5 million cells per ml in RPMI, supplemented with 2% FBS. To remove adherent cells, the suspension was plated onto a 6 well flat-bottom plate (Corning Costar), 3 ml/well, and incubated for 2 hours at 37° C., 5% CO2. Non-adherent cells were harvested after this incubation, were counted and resuspended in RPMI supplemented with 10% human serum (Sigma).
All drugs were pre-plated before the cell suspension was added onto each well of a 96-well round-bottom plate. All experimental conditions were assayed in at least triplicate. Cells suspended in RPMI supplemented with 10% human serum were plated at 100,000 cells per well to a final volume of 200 μl. […] Control samples received no ConA stimulation. The plates were incubated at 37° C. and 5% CO2. One microCurie of tritiated thymidine was added to each well after 60 hours, and the plates were harvested 12 hours later.

T cells = experiment: Macrophage media-conditioning study, T cell proliferation in conditioned media; type: cell-based, mouse; conditions: added to conditioned media, FIG. 1
Text: Femur and tibia bones were harvested from the hind limbs of 6-8 week old C57/B6J mice (Jackson Laboratories, Bar Harbor, Me.). The distal ends of the bones were removed, exposing the marrow plugs. Using a 22 gauge needle (Becton-Dickinson, Lincoln Park, N.J.), the marrow cavities were flushed with RPMI medium supplemented 2% FBS. The cell suspension was then passed through a nylon mesh to remove stromal cells. Red blood cells were lysed using ACK (ammonium chloride potassium lysis buffer; 0.15 M NH4Cl, 10 mM KHCO3, 0.1 mM EDTA) buffer as described in Current Protocols in Immunology (Section 3.1.5).
Cells were resuspended at 10^7 cells/ml in RPMI medium, containing 10% FBS, 500 units/ml of murine M-CSF, and 3 ml/well of cell suspension were plated onto a 6 well flat-bottom plate. […] Cells were grown for 4 days. Spleens of 6-8 week old BALB/c/BYJ were harvested, and single cell suspension was made. Red blood cells were removed as described above. Adherent cells were removed by 1.5 hour incubation on a nylon wool column, and suspension cells were collected. The BALB/c cells were then plated over the C57/B6 cells (see supra), at 1.2×10^6 cells/well, in 0.65 ml (bringing brought the final volume of each well to 1.3 ml). The cells were grown for 2.5 days. When appropriate, fluoxetine or BCH were added at the beginning of this incubation. The medium from the mixed cell cultures was harvested, centrifuged at 1200 RPM to remove cells, and filtered using a 0.22 microns syringe filter (Corning). This filtered medium was used to support another round of cell proliferation.

RPMI-8226 cells = experiment: Hematoxylin-eosin / bis-benzamide staining of RPMI-8226 cytospins; type: cell-based, human
Description: 2.0×10^5 RPMI-8226 cells were cultured, in 6-well culture plates, in the presence of the indicated drug concentrations, in a total of 5 mL RPMI-1640 supplemented with 10% FBS. Each well was harvested in its entirety and divided into two identical samples for cytospins.
1.0×10^5 RPMI-8226 cells from each treatment group were loaded into Cyto-funnels and centrifuged at 500 rpm for 4 minutes with medium acceleration. Slides were then fixed through graded methanol in PBS (100%, 5 minutes; 80%, 5 minutes; 50%, 5 minutes), washed for 5 minutes in PBS and stored in PBS at 4° C. until stained.
Cytospun slides were stained with Hematoxylin and Eosin, followed by the nuclear stain, bis-benzamide, rinsed and mounted according to standard staining protocols. Slides were visualized under both brightfield and fluorescent light to generate matched images of the same slide field (see, e.g., FIGS. 28 and 29).

Row | Molecule | effect on outcome of murine MLR (murine lymphocytes) | effect on growth of RPMI-8226 cells [1] | effect on activation / proliferative response (human lymphocytes [2]) | effect on activation / proliferative response (human lymphocytes [3]; harvested 72 hours) | also measured
1 | 5-methyl hydroxytryptamine | slight enhancement | – | – | – | –
2 | CSc1ccc2c(c1)C(N1CCN(C)CC1)Cc1ccccc1S2 (stereo not shown) [methiothepin] | – | strong inhibition of growth | inhibit the activation response at pharmacologically relevant concentrations | inhibit the activation response at pharmacologically relevant concentrations | –
3 | NCCc1c[nH]c2ccc(O)cc12 [serotonin, 5-hydroxytryptamine] | – | – | – | – | relief of phenelzine-induced inhibition (human lymphocytes [3]; ConA 1 μg/ml, added to phenelzine-inhibited cells, 100 μM each, FIG. 6): caused the assay to rebound to baseline levels; effect on proliferative response (human lymphocytes [3]; ConA 1 μg/ml, reagent 100 μM, FIG. 6): did not; effect on the assay across ConA concentrations (human lymphocytes [3]; ConA 0.1, 1 and 10 μg/ml, harvest 72 hours, FIG. 5): no effect on the assay until the highest dose of ConA; effect on stimulation of ConA-stimulated human PBLs (human lymphocytes [3]; reagents at 400 μM, time course, FIG. 4): enhanced the maximal stimulation of the cells; restoration of T cell proliferation in conditioned media (T cells): only marginally restored the assay
4 | Cc1cc2c(cc1Cl)N(C(=O)Nc1ccc(Oc3cccnc3C)nc1)CC2 [SB 242084] | – | strong inhibition of growth | inhibit the activation response at pharmacologically relevant concentrations | inhibit the activation response at pharmacologically relevant concentrations | inhibitory profile when dosed at time=0 or time=48 hours (human lymphocytes [3]; ConA 1 μg/ml, harvested 72 hours, FIG. 12): retained the complete inhibitory profile; chromatin / nuclear morphology (RPMI-8226 cells; 50 μM, 9 hour treatment, FIGS. 28, 29): condensed and fragmented chromatin; induction of programmed cell death (RPMI-8226 cells; FIGS. 28 and 29): induced programmed cell death comparable to that induced by the topoisomerase I inhibitor, camptothecin
5 | CNc1cc(NS(=O)(=O)c2ccc(N)cc2)nc(NC)n1 [Ro 04-679] | no effects on the outcome of the assay | – | – | – | –
